Assays:
[1] = biological target: T1, adult human liver flavin-containing monooxygenase (form 3) (Homo sapiens, UniProt P31513, E158K); assay: N- and S-oxygenation by cDNA-expressed HLFMO 3 (solubilized protein from E. coli transformed with pTrcHLFMO 3), HPLC
T1 sequence (P31513 1-532 E158K): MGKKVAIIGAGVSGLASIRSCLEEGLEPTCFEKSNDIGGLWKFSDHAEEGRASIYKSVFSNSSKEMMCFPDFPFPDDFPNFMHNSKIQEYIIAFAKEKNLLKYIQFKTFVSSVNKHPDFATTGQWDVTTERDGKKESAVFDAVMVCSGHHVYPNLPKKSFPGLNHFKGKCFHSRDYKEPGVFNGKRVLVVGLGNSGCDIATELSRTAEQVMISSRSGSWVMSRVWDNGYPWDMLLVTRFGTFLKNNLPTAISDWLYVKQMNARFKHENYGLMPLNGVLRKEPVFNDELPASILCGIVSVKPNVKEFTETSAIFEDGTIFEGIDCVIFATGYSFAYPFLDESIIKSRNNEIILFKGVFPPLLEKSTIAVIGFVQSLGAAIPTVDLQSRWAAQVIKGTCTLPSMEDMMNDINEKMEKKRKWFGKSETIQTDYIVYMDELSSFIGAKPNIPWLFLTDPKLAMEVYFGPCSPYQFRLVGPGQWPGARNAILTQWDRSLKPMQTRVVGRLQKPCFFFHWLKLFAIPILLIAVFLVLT
Method: (§1) In all cases examined, product formation was directly determined by HPLC analysis of organic extracts.
Competent NM522 Escherichia coli cells were transformed with the pTrc HLFMO 3 plasmid. […] After inoculation with a fresh overnight culture of NM522 containing pTrcHLFMO 3, the culture was grown at 37° C. until Abs600 was approximately 0.5 absorbance units. Finally, IPTG (0.8 mM) was added to the culture to induce expression of protein and the culture was left to grow overnight at 37° C.
The bacterial pellet was resuspended in 5 volumes of 50 mM potassium phosphate buffer (pH 8.4) containing 1% Triton X-100, 0.1% L-, α-phosphatidylcholine (L-α-lecithin) from egg yolk, 500 μM PMSF, and 1 mM EDTA. The mixture was sonicated and then centrifuged to remove cellular debris. As a control, bacterial lysate extracts from IPTG-induced pTrc99A-transformed NM522 cells (i.e., pTrc99A without the HLFMO 3 cDNA insert) were prepared under the same conditions.
(§2) Human liver samples were obtained from the Department of Surgery (UCSF) and with a protocol from the Medical College of Wisconsin (S. Wrighton).
(§3) A typical incubation mixture (final volume 0.25 ml) contained hepatic microsomes (0.4 mg of protein) or bacterial lysate (2.3 mg of protein), NADP^+ (0.5 mM), glucose-6-phosphate (2.0 mM), glucose-6-phosphate dehydrogenase (1 IU), DETAPAC (0.8 mM) and potassium phosphate buffer (50 mM, pH 8.4). Reactions were initiated by the addition of substrate and terminated at designated times by the addition of three volumes of cold dichloromethane, mixed thoroughly and centrifuged to separate the aqueous and organic fractions. N- and S-oxide metabolic products in the resulting organic extracts were separated and quantified by HPLC. […] Thiobenzamide and thiobenzamide S-oxide were quantified with this same, HPLC system employing a mobile phase of methanol/acetonitrile/60% perchloric acid (20:80:0.016, v/v) which gave retention volumes of 2.7 and 7.0 ml, respectively. […] The major metabolites formed in the incubations were also subjected to mass spectral analysis after extraction of isolated HPLC fractions.
(§4) RPLC of the S-oxide diastereomers with a Chiracel OT chiral analytical column (25 cm×0.15 cm inner diameter, Daicel Chemical Co., New York, N.Y.) was accomplished with a Beckman system, Kratos UV detector (240 nm) and a Hewlett Packard Integrator. […] Quantification was accomplished by comparing integrated HPLC peak areas after taking into account the difference in the extinction coefficients at 240 nm. Likewise, the cis and trans S-oxide diasteromers of (+)- and (−)-2-methyl-1,-benzodithiole were separated with a Chiracel OT chiral analytical column.

Human Liver Microsomes = assay: in vitro
Method: as §1, §2, §3, §4

in vitro = settings: human, pH 8.4
Method: as §1, §2, §3, §4

- substrate activity for human liver microsomes and expressed HLFMO 3, in words [1]: excellent substrates
- pH of maximum S-oxygenase activity ([1]; in the presence of microsomes and expressed HLFMO 3): ~8.5
- Vmax, Human Liver Microsomes (Human Liver Microsomes): 1.3 nmol/min/mg of protein
- Km (in vitro): 14.9 µM
SMILES: NC(=S)c1ccccc1 [Thiobenzamide, thiobenzamide]
